This note sets out measurements from ChEMBL document CHEMBL1143321, “Novel imidazole-based histamine H3 antagonists” (Bioorg Med Chem Lett, 2009).

Series [1] concerns the target T1, Histamine H3 receptor (Homo sapiens, UniProt Q9Y5N1). Briefly: Antagonist activity at human histamine H3 receptor. Type of series: functional. To be noted: read-out: pA2 (converted).
The target of series [2] is T1, Histamine H3 receptor. Briefly: Binding affinity to human histamine H3 receptor.
Series [3] in a line: Metabolic stability in rat liver microsomes assessed as half life. It is filed as ADME, Microsome. On the technique in general: Microsomes from liver hold many membrane-bound enzymes, among them those of drug oxidation.
Series [4] can be described thus: Metabolic stability in human liver microsomes assessed as half life. It is filed as ADME, Microsome.
Series [5] can be described thus: Half life in rat at 10 mg/kg, po. It is filed as ADME, organism-based. Set-up: dose 10 mg/kg, route oral. To be noted: in vivo.
Series [6] is described as follows: Oral bioavailability in rat at 10 mg/kg. Type of series: ADME, organism-based. The conditions noted are these: in vivo.
The target in another series is T2, Cytochrome P450 1A2 (Homo sapiens, UniProt P05177).
T2 sequence (P05177 whole entry): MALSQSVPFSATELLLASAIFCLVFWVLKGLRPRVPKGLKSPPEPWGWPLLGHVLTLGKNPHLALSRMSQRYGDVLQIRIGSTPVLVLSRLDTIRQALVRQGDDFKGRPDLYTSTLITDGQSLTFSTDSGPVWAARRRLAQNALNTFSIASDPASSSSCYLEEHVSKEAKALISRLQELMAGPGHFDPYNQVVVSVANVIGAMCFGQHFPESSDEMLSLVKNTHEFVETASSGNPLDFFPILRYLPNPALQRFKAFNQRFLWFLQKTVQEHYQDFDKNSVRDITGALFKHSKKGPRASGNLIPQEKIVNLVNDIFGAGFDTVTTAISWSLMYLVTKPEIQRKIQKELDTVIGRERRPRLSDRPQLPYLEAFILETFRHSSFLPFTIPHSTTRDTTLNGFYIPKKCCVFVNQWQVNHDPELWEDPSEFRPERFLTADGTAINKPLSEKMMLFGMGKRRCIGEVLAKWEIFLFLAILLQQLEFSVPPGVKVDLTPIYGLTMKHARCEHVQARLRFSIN
The series can be described thus: Inhibition of CYP1A2. It is filed as ADME.

The nature of series [7]: Drug level in rat brain at 10 mg/kg, ip after 60 mins. Type of series: ADME, organism-based. Set-up: dose 10 mg/kg, route intraperitoneal. To be noted: read-out: Drug uptake.
Series [8] has as its target Histamine H3 receptor (Rattus norvegicus, UniProt Q9QYN8). Briefly: Antagonist activity at rat histamine H3 receptor. It is filed as functional. To be noted: read-out: pA2 (converted).
A short description of series [9]: Volume of distribution in rat at 10 mg/kg, iv. It is filed as ADME, organism-based. Set-up: dose 10 mg/kg, route intravenous. To be noted: in vivo.
In another series the target is Cytochrome P450 2C9 (Homo sapiens, UniProt P11712). Briefly: Inhibition of CYP2C9. It is filed as ADME.
Cytochrome P450 2C9, sequence (P11712 whole entry): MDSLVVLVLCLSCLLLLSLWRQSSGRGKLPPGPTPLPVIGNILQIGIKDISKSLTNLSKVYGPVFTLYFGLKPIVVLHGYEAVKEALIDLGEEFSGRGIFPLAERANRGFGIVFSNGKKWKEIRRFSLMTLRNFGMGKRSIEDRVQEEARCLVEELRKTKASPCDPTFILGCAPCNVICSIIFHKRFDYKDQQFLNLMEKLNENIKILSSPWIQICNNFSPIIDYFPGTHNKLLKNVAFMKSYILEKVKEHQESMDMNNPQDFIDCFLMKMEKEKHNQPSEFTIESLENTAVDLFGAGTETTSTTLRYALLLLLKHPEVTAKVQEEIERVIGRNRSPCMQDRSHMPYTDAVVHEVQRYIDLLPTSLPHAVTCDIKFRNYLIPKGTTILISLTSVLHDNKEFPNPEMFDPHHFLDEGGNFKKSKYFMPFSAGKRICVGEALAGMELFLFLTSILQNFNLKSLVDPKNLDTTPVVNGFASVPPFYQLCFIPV
Series [10] can be described thus: Binding affinity to sigma receptor at 10 uM.
A further series has as its target Cytochrome P450 2C19 (Homo sapiens, UniProt P33261). Briefly: Inhibition of CYP2C19. It is filed as ADME.
Series [11] is described as follows: Plasma concentration in rat 10 mg/kg, ip after 60 mins. Set-up: dose 10 mg/kg, route intraperitoneal. It is filed as ADME, organism-based.
A further series addresses Cytochrome P450 3A4 (Homo sapiens, UniProt P08684). The series can be described thus: Inhibition of CYP3A4. Type of series: ADME.
The nature of series [12]: Drug level in rat at 10 mg/kg, ip after 48 hrs. It is filed as ADME, organism-based. Set-up: dose 10 mg/kg, route intraperitoneal. The conditions noted are these: in vivo, read-out: Drug uptake.
In a further series the target is Cytochrome P450 2D6 (Homo sapiens, UniProt P10635). The series can be described thus: Inhibition of CYP2D6. Type of series: ADME.
Cytochrome P450 2D6, sequence (P10635 whole entry): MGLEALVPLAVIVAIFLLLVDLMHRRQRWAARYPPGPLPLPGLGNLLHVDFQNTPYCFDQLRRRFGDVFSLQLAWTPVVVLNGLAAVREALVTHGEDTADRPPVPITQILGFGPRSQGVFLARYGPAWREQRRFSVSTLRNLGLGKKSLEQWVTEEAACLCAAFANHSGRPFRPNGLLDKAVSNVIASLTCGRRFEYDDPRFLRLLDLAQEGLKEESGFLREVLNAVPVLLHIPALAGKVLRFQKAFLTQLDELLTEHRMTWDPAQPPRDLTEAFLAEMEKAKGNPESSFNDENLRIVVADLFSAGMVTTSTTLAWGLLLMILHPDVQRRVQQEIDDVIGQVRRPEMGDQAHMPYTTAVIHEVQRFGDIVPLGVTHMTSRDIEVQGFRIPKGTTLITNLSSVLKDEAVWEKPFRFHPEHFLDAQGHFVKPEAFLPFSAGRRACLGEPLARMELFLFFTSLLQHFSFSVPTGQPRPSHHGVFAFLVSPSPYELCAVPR
Series [13] is described as follows: Clearance in rat at 10 mg/kg, iv. It is filed as ADME, organism-based. To be noted: in vivo. Set-up: dose 10 mg/kg, route intravenous.

One may read the Ki as the dissociation constant of the complex between target and ligand, obtained from inhibition or displacement. Broadly, the half-life is how long it takes for the measured level to halve. What is called bioavailability is the share of a dose that reaches the circulation, judged against a reference dose that is usually intravenous. Low values mean poor availability, high ones good availability. What is called IC50 is the midpoint of a concentration-inhibition curve. Read a high IC50 as a need for much substance. What is called Vd is the apparent volume that relates the amount in the body to the concentration in plasma or blood. The clearance is a measure of how efficiently the substance is removed, as volume per time. The low end stands for a low capacity for elimination, the high end for a high capacity for elimination.

T1 sequence (Q9Y5N1 whole entry): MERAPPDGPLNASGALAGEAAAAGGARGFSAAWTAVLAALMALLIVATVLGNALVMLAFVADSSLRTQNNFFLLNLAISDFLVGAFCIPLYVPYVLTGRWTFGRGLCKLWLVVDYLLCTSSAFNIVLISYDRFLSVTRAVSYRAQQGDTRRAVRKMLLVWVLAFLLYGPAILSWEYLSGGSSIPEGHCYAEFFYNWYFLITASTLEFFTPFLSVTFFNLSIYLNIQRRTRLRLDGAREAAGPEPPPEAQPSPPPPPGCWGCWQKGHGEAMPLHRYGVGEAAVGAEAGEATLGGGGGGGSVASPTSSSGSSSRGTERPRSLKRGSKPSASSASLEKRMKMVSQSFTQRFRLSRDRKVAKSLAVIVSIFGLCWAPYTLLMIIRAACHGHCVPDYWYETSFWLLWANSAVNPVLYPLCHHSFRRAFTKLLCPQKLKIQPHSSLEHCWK
Cytochrome P450 3A4, sequence (P08684 whole entry): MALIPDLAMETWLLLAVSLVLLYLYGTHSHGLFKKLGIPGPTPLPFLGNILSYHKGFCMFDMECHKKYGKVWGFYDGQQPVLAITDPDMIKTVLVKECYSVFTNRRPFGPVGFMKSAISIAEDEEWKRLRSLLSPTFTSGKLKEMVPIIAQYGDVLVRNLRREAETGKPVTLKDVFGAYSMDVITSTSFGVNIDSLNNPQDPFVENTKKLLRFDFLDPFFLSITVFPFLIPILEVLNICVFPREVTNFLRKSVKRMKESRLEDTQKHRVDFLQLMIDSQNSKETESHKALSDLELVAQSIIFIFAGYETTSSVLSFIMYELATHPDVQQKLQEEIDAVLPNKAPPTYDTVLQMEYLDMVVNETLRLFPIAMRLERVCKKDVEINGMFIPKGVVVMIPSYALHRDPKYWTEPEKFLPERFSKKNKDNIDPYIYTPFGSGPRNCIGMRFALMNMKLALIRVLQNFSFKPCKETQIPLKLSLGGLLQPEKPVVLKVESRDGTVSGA
Cytochrome P450 2C19, sequence (P33261 whole entry): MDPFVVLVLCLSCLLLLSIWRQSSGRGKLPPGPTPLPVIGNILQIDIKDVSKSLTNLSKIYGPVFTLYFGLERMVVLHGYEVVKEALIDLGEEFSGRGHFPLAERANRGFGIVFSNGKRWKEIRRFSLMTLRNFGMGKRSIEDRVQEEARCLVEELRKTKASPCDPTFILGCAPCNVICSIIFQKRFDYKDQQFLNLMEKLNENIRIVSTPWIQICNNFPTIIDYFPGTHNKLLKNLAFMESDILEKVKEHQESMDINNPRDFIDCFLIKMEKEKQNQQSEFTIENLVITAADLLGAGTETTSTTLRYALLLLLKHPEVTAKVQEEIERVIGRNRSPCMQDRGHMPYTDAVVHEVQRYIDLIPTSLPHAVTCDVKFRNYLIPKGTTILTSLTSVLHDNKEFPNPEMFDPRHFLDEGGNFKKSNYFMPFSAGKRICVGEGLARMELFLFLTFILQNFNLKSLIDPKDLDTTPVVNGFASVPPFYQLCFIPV
Histamine H3 receptor (Rattus norvegicus, UniProt Q9QYN8), sequence (Q9QYN8 whole entry): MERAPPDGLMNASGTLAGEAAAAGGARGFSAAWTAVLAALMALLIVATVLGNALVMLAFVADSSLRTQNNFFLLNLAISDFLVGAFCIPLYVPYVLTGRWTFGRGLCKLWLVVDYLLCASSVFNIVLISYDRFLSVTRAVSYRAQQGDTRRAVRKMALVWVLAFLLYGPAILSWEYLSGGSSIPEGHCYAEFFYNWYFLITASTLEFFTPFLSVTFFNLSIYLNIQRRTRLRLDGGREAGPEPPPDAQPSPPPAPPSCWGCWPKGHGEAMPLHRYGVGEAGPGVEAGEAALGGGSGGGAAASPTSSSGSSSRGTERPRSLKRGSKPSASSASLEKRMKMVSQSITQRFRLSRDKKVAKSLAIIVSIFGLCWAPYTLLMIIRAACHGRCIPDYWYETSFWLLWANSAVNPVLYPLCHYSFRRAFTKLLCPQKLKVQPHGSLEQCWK

Consider `CC(C)N1CCC(Sc2ncc(C(=O)c3ccc(Cl)cc3)n2C)CC1`, for which the Kb on Histamine H3 receptor [1] is 0.501 nM. At Histamine H3 receptor [2], this molecule gave a Ki of 2 nM.

For the molecule `Cn1c(C(=O)c2ccc(Cl)cc2)cnc1NCCCN1CCCCC1`, the Kb at Histamine H3 receptor [1] is 39.8 nM. Also, the half-life in [3] was 4 min; in series [4], above 180 min. The Ki at Histamine H3 receptor [2] came out at 50 nM.

On to `CC(C)N1CCC(COc2ncc(C(=O)c3ccc(Cl)cc3)n2C)CC1`, for which, in series [5], the half-life is 540 min. Besides, in [6], the bioavailability came to 10%. Moreover, the concentration for half-maximal inhibition (IC50) against Cytochrome P450 1A2, against Cytochrome P450 2C9, on Cytochrome P450 2C19, on Cytochrome P450 3A4 and on Cytochrome P450 2D6 was above 10 µM in each case. For the same molecule, the concentration at 1 h in [7] was determined as 17 µM; in series [11] it was 2600 nM. The results for the Kb on Histamine H3 receptor [8] and on Histamine H3 receptor [1] were 10 nM and 0.501 nM, respectively. In series [9], this molecule had a Vd of 5.2 L/kg. In series [10], the Activity worked out at 77%. Further, in series [12], the concentration at 48 h was determined as 3.8 µM. For the same molecule, the clearance in series [13] was 9.3 mL/min/kg. The molecule further had a Ki on Histamine H3 receptor [2] of 3 nM.

Consider `CC(C)N1CCC(Oc2ncc(C(=O)c3ccc(Cl)cc3)n2C)CC1`, for which the Kb on Histamine H3 receptor [1] is 6.31 nM. This molecule gave an inhibition constant Ki on Histamine H3 receptor [2] of 10 nM.

On to `CN(C)CCCSc1ncc(C(=O)c2ccc(Cl)cc2)n1C`, for which the Kb on Histamine H3 receptor [1] was 2 nM. This molecule also yielded a Ki on Histamine H3 receptor [2] of 5 nM.

Take `CC(C)CCCSc1ncc(C(=O)c2ccc(Cl)cc2)n1C`: at Histamine H3 receptor [1], the Kb is 10000 nM. On Histamine H3 receptor [2], this molecule yielded a Ki above 5000 nM.

Take `CC(C)N1CCC(COc2ncc(C(=O)c3ccc(Br)cc3)n2C)CC1`: at Histamine H3 receptor [1], the Kb is 0.794 nM. At Histamine H3 receptor [2], this molecule returned a Ki of 3 nM.

On to `CN(C)CCCSc1ncc(C(O)c2ccc(Cl)cc2)n1C` (stereo not given), for which the Kb at Histamine H3 receptor [1] is 3.98 nM. On Histamine H3 receptor [2], the Ki is 18 nM.

Turning to `CC(C)N1CCC(COc2ncc(C(=O)c3ccccc3)n2C)CC1`, the Kb at Histamine H3 receptor [1] is 0.316 nM. For the same molecule, on Histamine H3 receptor [2], the Ki stood at 1 nM.

The molecule `CCCCN(CCCC)CCCOc1ccc(-c2cn3cccc(C)c3n2)cc1` returned a Ki at Histamine H3 receptor [2] of 4 nM. This counts as single-digit nanomolar.

On to `CC(C)N1CCC(COc2ncc(C(=O)c3ccc([N+](=O)[O-])cc3)n2C)CC1`, for which, on Histamine H3 receptor [1], the Kb is 1 nM. On Histamine H3 receptor [2], this molecule yielded an inhibitory constant (Ki) of 4 nM.

With `CN(C)CCCSc1ncc(/C(=N\O)c2ccc(Cl)cc2)n1C`, the Kb at Histamine H3 receptor [1] is 3.98 nM. Further, the affinity on Histamine H3 receptor [2], expressed as Ki, was 2 nM.

In turn, `c1cc(Sc2ccc([C@H]3CC[C@H]4CCCCN43)cc2)ccn1` yielded a Ki on Histamine H3 receptor [2] of 12 nM.

`Cn1c(C(=O)c2ccc(Cl)cc2)cnc1CCCCN1CCCCC1`: on Histamine H3 receptor [1], the Kb was 10 nM. Besides, the values for the half-life in [3] and in series [4] were 4 min and 179 min, respectively. Further, on Histamine H3 receptor [2], the Ki was determined as 24 nM.

As to `Cn1c(C(=O)c2ccc(Cl)cc2)cnc1OCCCN1CCCCC1`, the Kb at Histamine H3 receptor [1] was 12.6 nM. The values for the half-life in series [3] and in series [4] were 55 min and above 180 min, respectively. This molecule also showed a Ki at Histamine H3 receptor [2] of 14 nM.

Regarding `CC(C)c1ccc(C(=O)c2cnc(OCC3CCN(C(C)C)CC3)n2C)cc1`, the Kb on Histamine H3 receptor [1] was 1.26 nM. This molecule returned a Ki on Histamine H3 receptor [2] of 9 nM.

Take `Cn1c(C(=O)c2ccc(Cl)cc2)cnc1SCCCN1CCCCC1`: the Kb on Histamine H3 receptor [1] was 20 nM. Moreover, the half-life in series [3] stood at 7 min; in [4], 149 min. Also, on Histamine H3 receptor [2], the Ki is 6 nM.

`CC(C)N1CCC(COc2ncc(C(=O)c3ccc(C(F)(F)F)cc3)n2C)CC1`: on Histamine H3 receptor [1], the Kb is 0.501 nM. Further, on Histamine H3 receptor [2], the inhibitory constant (Ki) was 4 nM.

Take `CC(C)N1CCC(CCOc2ncc(C(=O)c3ccc(Cl)cc3)n2C)CC1`: the Kb on Histamine H3 receptor [1] was 79.4 nM. The molecule further displayed a Ki at Histamine H3 receptor [2] of 70 nM.

Regarding `CN(C)CCSc1ncc(Cc2ccc(Cl)cc2)n1C`, the Kb at Histamine H3 receptor [1] is 50.1 nM. The molecule also displayed a Ki at Histamine H3 receptor [2] of 71 nM.

Turning to `CC(C)N1CCC(COc2ncc(C(=O)c3ccccc3Cl)n2C)CC1`, on Histamine H3 receptor [1], the Kb was 0.00794 nM. The same molecule registered a Ki at Histamine H3 receptor [2] of 1 nM.

For the molecule `CC(C)N1CCC(COc2ncc(C(=O)c3cc(Cl)cc(Cl)c3)n2C)CC1`, the Kb at Histamine H3 receptor [1] is 1 nM.

With `CN(C)CCCSc1ncc(Cc2ccc(Cl)cc2)n1C`, the Kb on Histamine H3 receptor [1] is 6.31 nM. Also, the Ki at Histamine H3 receptor [2] turned out to be 20 nM.

For `CC(C)N1CCC(COc2ncc(C(=O)c3ccc(F)cc3)n2C)CC1`, the Kb at Histamine H3 receptor [1] was 0.316 nM. On Histamine H3 receptor [2], this molecule yielded a Ki of 3 nM.

Regarding `Cn1c(C(=O)c2ccc(Cl)cc2)cnc1SCCCCN1CCCCC1`, the Ki on Histamine H3 receptor [2] came out at 50 nM.

`CC(C)N1CCC(COc2ncc(C(=O)c3cccc(Cl)c3)n2C)CC1`: the Kb at Histamine H3 receptor [1] is 0.2 nM. Also, the affinity at Histamine H3 receptor [2] corresponds to a Ki of 5 nM.
